pIC50: −log10 of the molar value.
Target: T1, human PDE5 (Homo sapiens, UniProt O76074)
T1 construct: from tissue; host or cells: platelets from fresh blood of human donors (lysate, 10,000 g supernatant)
Experiment: Inhibition of the type 5 phosphodiesterase (PDE5) activity, modified SPA test with platelet lysate
Assay type: biochemical
Conditions: PDE5 from human platelet lysate, 0.5 μM cGMP
Outline: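 SPA-based cGMP hydrolysis, [3H]cGMP tracer in 0.5 μM cGMP, by sonicated human platelet lysate; motapizone (1 μM) and a PDE2 inhibitor (10 nM) block other PDEs. Reaction 15 min at 37 °C after 5 min preincubation, quenched with beads containing IBMX. IC50 from concentration-effect curves.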

pIC50	Structure (SMILES)
8.63	COc1ccc(OCC2CC2)c(-c2ncnc3c(C(=O)NC4CCN(C(=O)CO)CC4)c[nH]c23)c1 [Example 211, 4-(2-Cyclopropylmethoxy-5-methoxy-phenyl)-5H-pyrrolo[3,2-d]pyrimidine-7-carboxylic acid [1-(2-hydroxy-acetyl)piperidin-4-yl]-amide]
9.49	CC(=O)c1cc(-c2ncnc3c(C(=O)NC4CCN(C(=O)[C@H](C)O)CC4)c[nH]c23)c(OCC2CC2)cc1C [Example 267, 4-(5-Acetyl-2-cyclopropylmethoxy-4-methyl-phenyl)-5H-pyrrolo[3,2-d]pyrimidine-7-carboxylic acid [1-((S)-2-hydroxy-propionyl)piperidin-4-yl]-amide]
8.66	O=C(N[C@H]1CC[C@H](C(=O)NC2CC2)CC1)c1c[nH]c2c(-c3cc(F)ccc3OCC3CC3)ncnc12 [Example 273, trans-4-(2-Cyclopropylmethoxy-5-fluoro-phenyl)-5H-pyrrolo[3,2-d]pyrimidine-7-carboxylic acid (4-cyclopropylcarbamoyl-cyclohexyl)-amide]
8.63	Cc1ccc(OCC2CC2)c(-c2ncnc3c(C(=O)NC4CCN(C(=O)[C@H](C)O)CC4)c[nH]c23)c1 [Example 247, 4-(2-Cyclopropylmethoxy-5-methyl-phenyl)-5H-pyrrolo[3,2-d]pyrimidine-7-carboxylic acid [1-((S)-2-hydroxy-propionyl)piperidin-4-yl]-amide]
8.71	Cc1ccc(OCC2CC2)c(-c2ncnc3c(C(=O)N[C@H]4CC[C@H](NC(=O)[C@H](C)O)CC4)c[nH]c23)c1 [Example 244, trans-4-(2-Cyclopropylmethoxy-5-methyl-phenyl)-5H-pyrrolo[3,2-d]pyrimidine-7-carboxylic acid [4-((S)-2-hydroxy-propionylamino)-cyclohexyl]-amide]

Continued, compound first:

Structure (SMILES)	pIC50
C[C@H](O)C(=O)N1CCC(CNC(=O)c2c[nH]c3c(-c4c(OCC5CC5)ccc5c4OCO5)ncnc23)CC1 [Example 187, 4-(5-Cyclopropylmethoxy-benzo[1,3]dioxol-4-yl)-5H-pyrrolo[3,2-d]pyrimidine-7-carboxylic acid [1-((S)-2-hydroxy-propanoyl)piperidin-4-ylmethyl]-amide]	9.34
O=C(N[C@H]1CC[C@@H](NC(=O)C2CC2)CC1)c1c[nH]c2c(-c3c(OCC4CC4)ccc4c3OCO4)ncnc12 [Example 8, cis-4-(5-Cyclopropylmethoxy-benzo[1,3]dioxol-4-yl)-5H-pyrrolo[3,2-d]pyrimidine-7-carboxylic acid {4-[(1-cyclopropyl-methanoyl)-amino]-cyclohexyl}-amide]	9.65
COCC(=O)N1CC[C@@H](NC(=O)c2c[nH]c3c(-c4cc(F)c(OC)cc4OCC4CC4)ncnc23)C1 [Example 119, 4-(2-Cyclopropylmethoxy-5-fluoro-4-methoxy-phenyl)-5H-pyrrolo[3,2-d]pyrimidine-7-carboxylic acid [(R)-1-(2-methoxy-acetyl)-pyrrolidin-3-yl]amide]	8.92
COc1ccc(-c2ncnc3c(C(=O)N[C@H]4CC[C@@H](NC(=O)[C@H](C)O)CC4)c[nH]c23)c(OCC2CC2)c1 [Example 203, cis-4-(2-Cyclopropylmethoxy-4-methoxy-phenyl)-5H-pyrrolo[3,2-d]pyrimidine-7-carboxylic acid [4-((S)-2-hydroxy-propionylamino)-cyclohexyl]-amide]	9.41
CCCCOc1ccc2c(c1-c1ncnc3c(C(=O)NC4CCN(C(=O)OCC)CC4)c[nH]c13)OCO2 [Example 145, 4-{[4-(5-Butoxy-benzo[1,3]dioxol-4-yl)-5H-pyrrolo[3,2-d]pyrimidine-7-carbonyl]-amino}-piperidine-1-carboxylic acid ethyl ester]	10.00
